From PubChem BioAssay AID330 (DTP/NCI, 2004)
Values joined by “and” are separate entries in the source; they are usually repeats but may differ in a detail not shown here. Identical values can stand only once. Inconclusive results and toxic doses are left out.

Test system: P388 leukemia ip, CD2F1 mice, survival T/C
Experiment: NCI In Vivo Anticancer Drug Screen. Data for tumor model P388 Leukemia (intraperitoneal) in CD2F1 (CDF1) mice
Conditions: endpoint: median survival time, higher = longer survival
Method in brief: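 Mice carrying the transplanted tumor received test compound or vehicle. Survival was recorded in each group, and the value is the treated-group measurement divided by that of the vehicle-treated control group.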

[1] = dose: 100.0 mg/kg/injection, schedule: Q04DX003 (ip), vehicle: Klucel (hydroxypropylcellulose) (HPC)
[2] = dose: 200.0 mg/kg/injection, schedule: Q04DX003 (ip), vehicle: Klucel (hydroxypropylcellulose) (HPC)
[3] = dose: 400.0 mg/kg/injection, schedule: Q04DX003 (ip), vehicle: Klucel (hydroxypropylcellulose) (HPC)
[4] = dose: 50.0 mg/kg/injection, schedule: Q01DX005 (ip), vehicle: Klucel (hydroxypropylcellulose) (HPC)
[5] = dose: 100.0 mg/kg/injection, schedule: Q01DX005 (ip), vehicle: Klucel (hydroxypropylcellulose) (HPC)
[6] = dose: 100.0 mg/kg/injection, schedule: Q01DX001 (ip), vehicle: saline with Tween-80
[7] = dose: 200.0 mg/kg/injection, schedule: Q01DX005 (ip), vehicle: Klucel (hydroxypropylcellulose) (HPC)
[8] = dose: 50.0 mg/kg/injection, schedule: Q01DX005 (ip), vehicle: saline with Tween-80
[9] = dose: 100.0 mg/kg/injection, schedule: Q01DX005 (ip), vehicle: saline with Tween-80
[10] = dose: 200.0 mg/kg/injection, schedule: Q01DX005 (ip), vehicle: saline with Tween-80
[11] = dose: 100.0 mg/kg/injection, schedule: Q01DX001 (ip), vehicle: Klucel (hydroxypropylcellulose) (HPC)
[12] = dose: 200.0 mg/kg/injection, schedule: Q01DX001 (ip), vehicle: Klucel (hydroxypropylcellulose) (HPC)
[13] = dose: 400.0 mg/kg/injection, schedule: Q01DX001 (ip), vehicle: Klucel (hydroxypropylcellulose) (HPC)
[14] = dose: 100.0 mg/kg/injection, schedule: Q04DX002 (ip), vehicle: saline
[15] = dose: 200.0 mg/kg/injection, schedule: Q04DX002 (ip), vehicle: saline
[16] = dose: 400.0 mg/kg/injection, schedule: Q04DX002 (ip), vehicle: saline
[17] = dose: 50.0 mg/kg/injection, schedule: Q01DX009 (ip), vehicle: Klucel (hydroxypropylcellulose) (HPC)
[18] = dose: 100.0 mg/kg/injection, schedule: Q01DX009 (ip), vehicle: Klucel (hydroxypropylcellulose) (HPC)
[19] = dose: 200.0 mg/kg/injection, schedule: Q01DX009 (ip), vehicle: Klucel (hydroxypropylcellulose) (HPC)
[20] = dose: 50.0 mg/kg/injection, schedule: Q01DX009 (ip), vehicle: saline with Tween-80
[21] = dose: 100.0 mg/kg/injection, schedule: Q01DX009 (ip), vehicle: saline with Tween-80
[22] = dose: 200.0 mg/kg/injection, schedule: Q01DX009 (ip), vehicle: saline with Tween-80
[23] = dose: 400.0 mg/kg/injection, schedule: Q01DX009 (ip), vehicle: saline with Tween-80

`O=C1OC(c2ccccc2)N/C1=C\c1ccc(OCc2ccccc2)c(OCc2ccccc2)c1` (stereo unspecified) was tested, and the T/C [1] was 94 % of control, the T/C [2] was 87 % of control and the T/C [3] was 90 % of control.

In the case of `CN=C(N)N/N=C(\C)c1ccc2c(c1)Cc1cc(Br)ccc1-2`, the T/C (dose: 6.25 mg/kg/injection, schedule: Q04DX002 (ip), vehicle: saline with Tween-80) is reported as 102 % of control, the T/C (dose: 12.5 mg/kg/injection, schedule: Q04DX002 (ip), vehicle: saline with Tween-80) is reported as 105 % of control and the T/C (dose: 25.0 mg/kg/injection, schedule: Q04DX002 (ip), vehicle: saline with Tween-80) is reported as 105 % of control and 124 % of control. The T/C (dose: 50.0 mg/kg/injection, schedule: Q04DX002 (ip), vehicle: saline with Tween-80) was 98 % of control and 101 % of control.

`O/N=C(/CC(c1ccccc1)N1CCOCC1)c1ccccc1` (stereo unspecified) was tested, and the T/C [4] was 93 % of control and the T/C [5] was 90 % of control.

With `O=C(O)c1cccc(C(=O)O)c1I` the T/C (dose: 100.0 mg/kg/injection, schedule: Q01DX001 (ip), vehicle: other) was 103 % of control, the T/C (dose: 200.0 mg/kg/injection, schedule: Q01DX001 (ip), vehicle: other) was 96 % of control and the T/C (dose: 400.0 mg/kg/injection, schedule: Q01DX001 (ip), vehicle: other) was 89 % of control.

For `Nc1ccc(C2C(=[N+]([O-])[O-])C=C([N+](=O)[O-])c3[nH]o[n+](=O)c32)cc1` (stereo unspecified), the T/C (dose: 50.0 mg/kg/injection, schedule: Q01DX001 (ip), vehicle: saline with Tween-80) was 100 % of control and the T/C [6] was 100 % of control.

In the case of `CC(C)OC(=O)C#N`, the T/C (dose: 1.56 mg/kg/injection, schedule: Q01DX005 (ip), vehicle: saline with Tween-80) is reported as 100 % of control, the T/C (dose: 3.12 mg/kg/injection, schedule: Q01DX005 (ip), vehicle: saline with Tween-80) is reported as 101 % of control and the T/C (dose: 6.25 mg/kg/injection, schedule: Q01DX005 (ip), vehicle: saline with Tween-80) is reported as 100 % of control. The T/C (dose: 12.5 mg/kg/injection, schedule: Q01DX005 (ip), vehicle: saline with Tween-80) was 98 % of control.

`COc1ccc(N=Nc2c(-c3cccs3)nn(C(N)=S)c2C(F)(F)F)cc1` was tested, and the T/C [4] was 97 % of control, the T/C [5] was 95 % of control and the T/C [7] was 97 % of control.

`Cn1ncc2c(N(CCO)CCO)ncnc21` was tested, and the T/C (dose: 50.0 mg/kg/injection, schedule: Q01DX005 (ip), vehicle: saline) was 100 % of control, the T/C (dose: 100.0 mg/kg/injection, schedule: Q01DX005 (ip), vehicle: saline) was 100 % of control and the T/C (dose: 200.0 mg/kg/injection, schedule: Q01DX005 (ip), vehicle: saline) was 95 % of control.

In the case of `C=CCOc1cc2c(cc1C(C)c1ccc(OCC)c(C)c1)OCO2` (stereo unspecified), the T/C [8] is reported as 106 % of control, the T/C [9] is reported as 103 % of control and the T/C [10] is reported as 106 % of control.

With `CC(=O)Nc1ccc(S(=O)(=O)Nc2ccc3oc(=O)[nH]c3c2)cc1` the T/C [11] was 98 % of control, the T/C [12] was 93 % of control and the T/C [13] was 92 % of control.

In the case of `CN(C)c1c2c(=O)n(C)c(=O)n(C)c2nc2cccc[n+]12`, the T/C [4] is reported as 95 % of control, the T/C [5] is reported as 106 % of control and the T/C [7] is reported as 104 % of control.

In the case of `NC(=S)c1ccc(/C=N/c2nccs2)cc1`, the T/C [11] is reported as 105 % of control, the T/C [12] is reported as 104 % of control and the T/C [13] is reported as 105 % of control.

`Cc1ccnc(NS(=O)(=O)c2ccc(Nc3c4ccccc4nc4cc(Cl)ccc34)cc2)n1` was tested, and the T/C [1] was 104 % of control and 114 % of control, the T/C [2] was 106 % of control and 118 % of control and the T/C [3] was 124 % of control.

In the case of `O=c1c2cc(O)ccc2oc2c(CO)ccc(NCCN3CCCC3)c12`, the T/C [6] is reported as 93 % of control, the T/C (dose: 200.0 mg/kg/injection, schedule: Q01DX001 (ip), vehicle: saline with Tween-80) is reported as 100 % of control and the T/C (dose: 400.0 mg/kg/injection, schedule: Q01DX001 (ip), vehicle: saline with Tween-80) is reported as 106 % of control.

In the case of `CCCC(=O)NN(Cn1c(=S)sc2ccccc21)Cn1c(=S)sc2ccccc21`, the T/C [4] is reported as 101 % of control, the T/C [5] is reported as 90 % of control and the T/C [7] is reported as 93 % of control.

With `CN(C)CCCNC1C(C2COC(C)(C)O2)OC2OC(C)(C)OC21` (stereo unspecified) the T/C [14] was 97 % of control, the T/C [15] was 95 % of control and the T/C [16] was 93 % of control.

With `CC(Cl)CN(CC(C)Cl)C(=O)Oc1ccc(CC(N)C(=O)O)cc1` (stereo unspecified) the T/C [17] was 91 % of control, the T/C [18] was 89 % of control and the T/C [19] was 97 % of control.

For `NC(Cc1ccccc1[N+](=O)[O-])C(=O)O` (stereo unspecified), the T/C [20] was 92 % of control, the T/C [21] was 93 % of control and the T/C [22] was 91 % of control.

With `CC(C)O[Si](OC(C)C)(OC(C)C)OC(C)C` the T/C [17] was 101 % of control, the T/C [18] was 105 % of control and the T/C [19] was 105 % of control.

For `O=C1Nc2ccc(Cl)cc2C(c2ccccc2Cl)=NC1O` (stereo unspecified), the T/C [18] was 102 % of control and the T/C [19] was 96 % of control.

For `c1cc[c]([Sn][c]2ccccc2)cc1`, the T/C (dose: 2.5 mg/kg/injection, schedule: Q01DX009 (ip), vehicle: saline) was 151 % of control.

For `CCOC(=O)/N=C(/NC(=O)OCC)N1CCN(c2ccnc3cc(Cl)ccc23)CC1`, the T/C [8] was 98 % of control, the T/C [9] was 97 % of control and the T/C [10] was 91 % of control.

`N#CC(c1ccccc1)C(CC(=O)c1ccccc1)c1ccccc1` (stereo unspecified) was tested, and the T/C [21] was 86 % of control, the T/C [22] was 95 % of control and the T/C [23] was 95 % of control.

For `CC1(C)OC2C(COC(=O)c3ccccc3)OC(n3cnc4c(=NC(=O)c5ccccc5)n(C(=O)c5ccccc5)cnc43)C2O1` (stereo unspecified), the T/C [4] was 94 % of control and the T/C [5] was 94 % of control.

In the case of `N#CC(C#N)C(=O)c1ccccc1`, the T/C (dose: 50.0 mg/kg/injection, schedule: Q04DX003 (ip), vehicle: saline) is reported as 103 % of control, the T/C (dose: 100.0 mg/kg/injection, schedule: Q04DX003 (ip), vehicle: saline) is reported as 102 % of control and the T/C (dose: 200.0 mg/kg/injection, schedule: Q04DX003 (ip), vehicle: saline) is reported as 95 % of control. The T/C (dose: 400.0 mg/kg/injection, schedule: Q04DX003 (ip), vehicle: saline) was 95 % of control.

For `OCC[N-]CC[N-]CCO.[Cl][Co][Cl]`, the T/C (dose: 6.25 mg/kg/injection, schedule: Q01DX009 (ip), vehicle: saline) was 103 % of control, the T/C (dose: 12.5 mg/kg/injection, schedule: Q01DX009 (ip), vehicle: saline) was 120 % of control and the T/C (dose: 25.0 mg/kg/injection, schedule: Q01DX009 (ip), vehicle: saline) was 120 % of control. For the same compound, the T/C (dose: 50.0 mg/kg/injection, schedule: Q01DX009 (ip), vehicle: saline) was 122 % of control and the T/C (dose: 100.0 mg/kg/injection, schedule: Q01DX009 (ip), vehicle: saline) was 92 % of control.

`Cc1cccc2nnc(CCCc3nnc4cccc(C)n34)n12` was tested, and the T/C (dose: 100.0 mg/kg/injection, schedule: Q04DX003 (ip), vehicle: saline with Tween-80) was 98 % of control, the T/C (dose: 200.0 mg/kg/injection, schedule: Q04DX003 (ip), vehicle: saline with Tween-80) was 97 % of control and the T/C (dose: 400.0 mg/kg/injection, schedule: Q04DX003 (ip), vehicle: saline with Tween-80) was 96 % of control.

In the case of `Cc1cc(Br)ccc1N`, the T/C [21] is reported as 110 % of control, the T/C [22] is reported as 110 % of control and the T/C [23] is reported as 105 % of control.

`COC(=O)CCC1=C(OC)C(=O)C(OC)=CC1=O` was tested, and the T/C [20] was 112 % of control and the T/C [21] was 100 % of control.

With `NC1CCc2cc(O)c(O)cc2C1` (stereo unspecified) the T/C [14] was 108 % of control and 96 % of control, the T/C [15] was 105 % of control and 109 % of control and the T/C [16] was 109 % of control.

With `CCOC(=O)c1ccc(N(C)Cc2cnc(N)c(C#N)n2)cc1` the T/C (dose: 15.0 mg/kg/injection, schedule: Q01DX009 (ip), vehicle: saline with Tween-80) was 114 % of control, the T/C (dose: 30.0 mg/kg/injection, schedule: Q01DX009 (ip), vehicle: saline with Tween-80) was 115 % of control and the T/C (dose: 60.0 mg/kg/injection, schedule: Q01DX009 (ip), vehicle: saline with Tween-80) was 89 % of control.
